60 molecules from publication PMC12040169 (PLOS Biology, 2025) can be followed below.

What is called viability is a read-out of living cells in per cent, often relative to untreated cells.

A short description of one data set: in vitro. Particulars: human, hela cells, % viability.
In the case of `c1ccc(Oc2cccc(C(N3CCOCC3)N3CCOCC3)c2)cc1` [CBK261798], the viability at 28.5 h, 10 µM was 104%.

In the case of `Cc1ccc(OCC(=O)NNC(=O)c2ccco2)cc1` [CBK261800], the viability at 28.5 h, 10 µM was determined as 96.1%.

With `Cc1cc(/C=N\NC(=O)c2cc3ccccc3cc2O)c(C)n1-c1ccccc1` [CBK261801], the viability at 28.5 h, 10 µM is 84.6%.

On to `c1ccc(Nc2ccccc2Nc2ccccn2)nc1` [CBK261806], for which the viability at 28.5 h, 10 µM came to 93.5%.

As for `O=C(Nc1sc2c(c1CN1CCCCCC1)CCCC2)c1ccccc1` [CBK261811], the viability at 28.5 h, 10 µM stood at 91%.

Turning to `C/C(=N\N)c1ccc2[nH]c3c(c2c1)CCC/C3=N\N` [CBK261812], the viability at 28.5 h, 10 µM is 81.2%.

For `Nc1nonc1NC(=O)N/N=C/c1ccc(C(F)(F)F)cc1` [CBK261813], the viability at 28.5 h, 10 µM was 99.8%.

On to `CC(Sc1nc2c(N)ncnc2[nH]1)C(=O)O` (stereo not drawn) [CBK261814], for which the viability at 28.5 h, 10 µM stood at 106%.

On to `O=C(N/N=C/c1c(F)cccc1Cl)c1ccccc1O` [CBK261815], for which the viability at 28.5 h, 10 µM is 113%.

Take `C(=N\N=C(/c1ccccc1)C12CN3CN(CN(C3)C1)C2)/c1ccc2c(c1)OCO2` [CBK261816]: the viability at 28.5 h, 10 µM was determined as 102%.

With `O=C(N/N=C/c1ccc([N+](=O)[O-])cc1)C(=O)Nc1cccc(Cl)c1` [CBK261821], the viability at 28.5 h, 10 µM amounted to 95.8%.

For the molecule `CCOc1ccc(NC(=O)C(=O)NC2CCCCC2)cc1` [CBK261822], the viability at 28.5 h, 10 µM turned out to be 105%.

With `CC1(C)CC(=O)C2=C(C1)c1c(ccc3ccccc13)NC2c1ccc(-c2ccc(O)c(C(=O)O)c2)o1` (stereo not drawn) [CBK261823], the viability at 28.5 h, 10 µM turned out to be 108%.

`CC1(C(=O)O)CCC(C(=O)O)C1(C)C` (stereo not drawn) [CBK261830]: the viability at 28.5 h, 10 µM stood at 96.1%.

Turning to `O=[N+]([O-])c1ccc(O)c(/C=N/C(CO)(CO)CO)c1` [CBK261835], the viability at 28.5 h, 10 µM came to 89.3%.

As to `O=C(O)CC1c2ccccc2Oc2ccccc21` [CBK261836], the viability at 28.5 h, 10 µM amounted to 92%.

`CC1=NN(c2ccccc2)C(=O)/C1=C(/C)NNC(=O)c1ccccn1` [CBK261837]: the viability at 28.5 h, 10 µM came out at 91.7%.

With `O=C(O)/C(O)=C/C(=O)c1ccc(Cl)cc1` [CBK261841], the viability at 28.5 h, 10 µM amounted to 111%.

On to `Cc1ccc(C(=O)NNC(=O)/C=C\C(=O)O)cc1` [CBK261842], for which the viability at 28.5 h, 10 µM amounted to 86.9%.

Turning to `O=C1OC(c2ccc(N3C(=O)c4cccc5cccc(c45)C3=O)cc2)(c2ccc(N3C(=O)c4cccc5cccc(c45)C3=O)cc2)c2ccccc21` [CBK261845], the viability at 28.5 h, 10 µM worked out at 95.3%.

Regarding `CN1CCN(c2ccc([N+](=O)[O-])c(NCCCO)c2)CC1` [CBK261846C], the viability at 28.5 h, 10 µM amounted to 86.5%.

Consider `O=c1[nH]cc(COCc2ccccc2)c(=O)[nH]1` [CBK261847], for which the viability at 28.5 h, 10 µM turned out to be 94%.

Turning to `COc1ccc(CN2CCC(N3CCCCC3)CC2)c(OC)c1` [CBK261848], the viability at 28.5 h, 10 µM was 103%.

As for `COc1ccc(O)c(CN2CCC(N3CCCCC3)CC2)c1` [CBK261849], the viability at 28.5 h, 10 µM came to 94.9%.

In the case of `COc1cc(CN(C)Cc2cccc3ccccc23)c([N+](=O)[O-])cc1OC` [CBK261850], the viability at 28.5 h, 10 µM was found to be 89.3%.

Consider `COc1cc([N+](=O)[O-])cc(CN2CCN(CCO)CC2)c1O` [CBK261851], for which the viability at 28.5 h, 10 µM was found to be 92.4%.

As to `O=[N+]([O-])c1ccccc1CN1CCC(N2CCCCC2)CC1` [CBK261852], the viability at 28.5 h, 10 µM stood at 88.7%.

`COc1ccc(CN2CC=C(c3ccc(F)cc3)CC2)cc1OCc1ccccc1` [CBK261853]: the viability at 28.5 h, 10 µM amounted to 96.1%.

Turning to `FC(F)(F)c1cccc(CN2CCC(N3CCCCC3)CC2)c1` [CBK261855], the viability at 28.5 h, 10 µM stood at 90.1%.

Take `CN(C)CCN(C)Cc1ccc2c(c1)Cc1ccccc1-2` [CBK261856]: the viability at 28.5 h, 10 µM was 93.3%.

For the molecule `CN(Cc1cccc(Oc2ccccc2)c1)Cc1cccc2ccccc12` [CBK261857], the viability at 28.5 h, 10 µM amounted to 96.9%.

In the case of `COc1cc(CN2CCC(N3CCCCC3)CC2)c([N+](=O)[O-])cc1OC` [CBK261858], the viability at 28.5 h, 10 µM was determined as 93.3%.

As for `CN(C)CCN(C)Cc1ccc2ccc3cccc4ccc1c2c34` [CBK261860], the viability at 28.5 h, 10 µM is 103%.

`CC1CCCN(Cc2ccccc2[N+](=O)[O-])C1` (stereo not drawn) [CBK261862]: the viability at 28.5 h, 10 µM is 102%.

`O=[N+]([O-])c1ccccc1/C=C/CN1CCN(CCO)CC1` [CBK261863]: the viability at 28.5 h, 10 µM worked out at 85.8%.

`c1ccc(COc2ccc(CN3CCN(c4ccccn4)CC3)cc2)cc1` [CBK261865]: the viability at 28.5 h, 10 µM stood at 89.3%.

Take `O=[N+]([O-])c1ccc(CN(CCc2ccccc2)Cc2ccccc2)cc1` [CBK261866]: the viability at 28.5 h, 10 µM was found to be 99.2%.

With `COc1cc(CN2CCN(c3cc(C)ccc3C)CC2)cc([N+](=O)[O-])c1O` [CBK261868], the viability at 28.5 h, 10 µM was found to be 95.5%.

As to `CCOC(=O)CN(C)Cc1c[nH]c2ccccc12` [CBK261869], the viability at 28.5 h, 10 µM is 107%.

With `c1ccc(Oc2cccc(CN3CCOCC3)c2)cc1` [CBK261870], the viability at 28.5 h, 10 µM was 95.3%.

Turning to `CC(CCN(C)CCN(C)C)c1ccccc1` (stereo not drawn) [CBK261871], the viability at 28.5 h, 10 µM came to 87.6%.

As for `OCCN1CCN(CCCc2ccccc2)CC1` [CBK261872], the viability at 28.5 h, 10 µM worked out at 86%.

On to `OCCN(CCO)CC1CC2C=CC1C2` (stereo not drawn) [CBK261874], for which the viability at 28.5 h, 10 µM was 105%.

For `CN(C)CCN(C)Cc1ccccc1O` [CBK261875], the viability at 28.5 h, 10 µM was 103%.

Consider `CCN(CCN(C)C)Cc1ccc(F)cc1F` [CBK261877], for which the viability at 28.5 h, 10 µM turned out to be 93.1%.

With `CN(Cc1ccccc1)Cc1ccccc1O` [CBK261879], the viability at 28.5 h, 10 µM was 92.4%.

As for `OCCN(Cc1ccccc1)Cc1ccc(-c2ccccc2)cc1` [CBK261883], the viability at 28.5 h, 10 µM is 102%.

Regarding `CCN(Cc1ccccc1)Cc1ccco1` [CBK261884], the viability at 28.5 h, 10 µM came out at 111%.

In the case of `NC(=O)C1CCN(Cc2cc3c(cc2[N+](=O)[O-])OCO3)CC1` [CBK261885], the viability at 28.5 h, 10 µM worked out at 91.7%.

As for `OCCN(CCO)Cc1c(Cl)cccc1Cl` [CBK261887], the viability at 28.5 h, 10 µM is 93%.

Regarding `COc1ccc(CN2CCN(c3ccccn3)CC2)cc1OCc1ccccc1` [CBK261889], the viability at 28.5 h, 10 µM amounted to 84.9%.

Consider `CCOC(=O)CN(C)Cc1ccccc1Br` [CBK261891], for which the viability at 28.5 h, 10 µM is 108%.

`C(=C\c1ccccc1)/CN1CCN(CCc2ccccc2)CC1` [CBK261893]: the viability at 28.5 h, 10 µM came out at 93.4%.

On to `O=[N+]([O-])c1ccc(N2CCN(C/C=C/c3ccccc3[N+](=O)[O-])CC2)cc1` [CBK261895], for which the viability at 28.5 h, 10 µM amounted to 95%.

In the case of `C(=C\c1ccccc1)/CN1CCN(CCCc2ccccc2)CC1` [CBK261897], the viability at 28.5 h, 10 µM stood at 90%.

Staying with this data set, now noted: human, hela cells, % viability, bulk resorufin, single well.
`O=C1NC(=S)NC(=O)C1=Cc1ccc(-c2ccc([N+](=O)[O-])cc2Cl)o1` [CBK261820]: the viability at 28.5 h, 10 µM is 89.2%.

As for `O=C1NC(=S)N(c2ccc(F)cc2)C(=O)/C1=C\NC1CCN(Cc2ccccc2)CC1` [CBK261825], the viability at 28.5 h, 10 µM is 93%.

For `CN(C)CCN/C=C1/C(=O)NC(=S)N(c2ccccc2Cl)C1=O` [CBK261826], the viability at 28.5 h, 10 µM was determined as 86.4%.

Turning to `Cc1cccc(N2C(=O)NC(=O)/C(=C/NC3CCN(Cc4ccccc4)CC3)C2=O)c1` [CBK261827], the viability at 28.5 h, 10 µM was 92.2%.

For `COc1cc(Br)cc(CN2CCN(Cc3ccccc3)CC2)c1O` [CBK261880], the viability at 28.5 h, 10 µM came to 108%.
